From ChEMBL document CHEMBL4316622, “Discovery of novel pyrazole derivatives as potential anticancer agents in MCL” (Bioorg Med Chem Lett, 2019) come the findings set out here.

For data set [1], the system named is Rec1. The data set is described as follows: Antiproliferative activity against human Rec1 cells assessed as inhibition of cell proliferation incubated for 72 hrs by Cell-titer-Glo luminescent cell viability assay. In kind it is functional, cell-based. The note with it: Rec1, 72 h.
Data set [2] concerns JeKo-1. The data set is described as follows: Antiproliferative activity against human JeKo1 cells assessed as inhibition of cell proliferation incubated for 72 hrs by Cell-titer-Glo luminescent cell viability assay. In kind it is functional, cell-based. The note with it: JeKo-1, 72 h.
The subject of data set [3] is Maver1. The data set is described as follows: Antiproliferative activity against human Maver1 cells assessed as inhibition of cell proliferation incubated for 72 hrs by Cell-titer-Glo luminescent cell viability assay. In kind it is functional, cell-based. The note with it: Maver1, 72 h.
Data set [4] concerns Z-138. The data set is described as follows: Antiproliferative activity against human Z138 cells assessed as inhibition of cell proliferation incubated for 72 hrs by Cell-titer-Glo luminescent cell viability assay. In kind it is functional, cell-based. The following applies: Z-138, 72 h.
Data set [5] can be described thus: Antiproliferative activity against human Mino cells assessed as inhibition of cell proliferation incubated for 72 hrs by Cell-titer-Glo luminescent cell viability assay. The class given is functional, cell-based.
Data set [6] is described as follows: Half life in human liver microsomes further incubated of 5 to 60 mins in presence of NADPH regenerating system by LC/MS analysis. Background: Liver microsomes are a subcellular fraction often used to study metabolism.
Data set [7] in a line: in vitro. The following applies: human.
Description: Intrinsic clearance in human liver microsomes further incubated of 5 to 60 mins in presence of NADPH regenerating system by LC/MS analysis
Data set [8] can be described thus: in vitro. The note with it: human. This is another data set of the same source.
Description: Hepatic clearance in human liver microsomes further incubated of 5 to 60 mins in presence of NADPH regenerating system by LC/MS analysis
Data set [9] is described as follows: Stability in human liver microsomes assessed as compound remaining incubated of 60 mins in presence of NADPH regenerating system by LC/MS analysis.

What is called IC50 is the concentration needed to halve the response being measured. For orientation: half-life means how long it takes for the measured level to halve. For orientation: microsomal CLint means the rate of metabolic loss divided by the concentration. A lower microsomal CLint goes with greater metabolic stability. As usually defined, the CLint scaled is the capacity of the preparation to metabolise the compound, expressed as a volume cleared per time. A high value points to faster metabolism. What is called share remaining is what is left of the initial amount, in per cent.

A value given as a limit tells only on which side of the number the result lay.

With `C/C=C/C(=O)N1CCCC(n2nc(-c3ccc(Oc4ccccc4)cc3)cc2C(=O)OCC)C1` (racemic), the half-maximal inhibitory concentration (IC50) was determined as 5.1 µM in [1]; 26.5 µM in data set [2]; 19.6 µM in [3]; 19.1 µM in data set [4]; 11.7 µM in data set [5].

As to `O=C(O)c1cc(-c2ccc(Oc3ccccc3)cc2)nn1C1CCCN(C(=O)CCl)C1` (racemic), the IC50 in data set [1] stood at 2.2 µM; in data set [2] it was 3.6 µM; in data set [3], 0.4 µM; in [4] it was 2.8 µM; in data set [5] it was 2.5 µM.

In the case of `O=C(O)Cc1ccccc1Nc1c(Cl)cccc1Cl` [DICLOFENAC], the half-life in data set [6] (microsomes) is 11.5 min. For the same molecule, the microsomal CLint in [7] (microsomes) stood at 121 µL/min/mg. The molecule further gave a CLint scaled in data set [8] (microsomes) of 109 mL/min/kg.

Take `C=CC(=O)N1CCCC(n2nc(-c3ccc(Oc4ccccc4)cc3)cc2CO)C1` (racemic): the IC50 amounted to 5.4 µM in data set [1]; 11.9 µM in data set [2]; 30.5 µM in [3]; 14.6 µM in [4]; 15.4 µM in [5].

For the molecule `O=C(CCl)Nc1cccc(Cn2nc(-c3ccc(Oc4ccccc4)cc3)cc2C(=O)O)c1`, the IC50 in [1] is 7.1 µM; in [2] it was 6.3 µM; in data set [3] it was 4.7 µM; in data set [4], 9.1 µM; in data set [5], 11.7 µM.

For `C[C@]12CC[C@H]3[C@@H](CCC4=CC(=O)CC[C@@]43C)[C@@H]1CC[C@@H]2O` [TESTOSTERONE], the share remaining at 1 h in data set [9] (microsomes) amounted to 4.2%.

Turning to `C=CC(=O)Nc1cccc(Cn2nc(-c3ccc(Oc4ccccc4)cc3)cc2CO)c1`, the IC50 in data set [1] was 1.3 µM; in [2], 5.2 µM; in data set [3], 6.7 µM; in data set [4], 6 µM; in data set [5], 3.3 µM.

As for `C/C=C/C(=O)Nc1ccc(Cn2nc(-c3ccc(Oc4ccccc4)cc3)cc2C(=O)O)cc1`, the IC50 was 23.6 µM in data set [1]; more than 60 µM in [2]; more than 60 µM in data set [3]; more than 60 µM in data set [4]; 23.1 µM in [5].

Regarding `C=CC(=O)Nc1cccc(Cn2nc(-c3ccc(Oc4ccccc4)cc3)cc2C(=O)OCC)c1`, the IC50 in [1] stood at 3.3 µM; in data set [2] it was 7.6 µM; in data set [3] it was 8.6 µM; in [4], 7.8 µM; in [5], 5.7 µM.

For `C=CC(=O)Nc1cccc(Cn2nc(-c3ccc(Oc4ccccc4)cc3)cc2C(=O)O)c1`, the IC50 in [1] was 33.1 µM; in data set [2], more than 60 µM; in data set [3], 37.4 µM; in data set [4], 28.5 µM; in data set [5], 24.3 µM.

For the molecule `CCOC(=O)c1cc(-c2ccc(Oc3ccccc3)cc2)nn1Cc1ccc(NC(=O)CCl)cc1`, the IC50 in data set [1] is 0.4 µM; in [2], 0.4 µM; in data set [3], 0.4 µM; in [4], 0.4 µM; in data set [5] it was 0.6 µM.

`CCOC(=O)c1cc(-c2ccc(Oc3ccccc3)cc2)nn1C1CCCN(C(=O)CCl)C1` (racemic): the IC50 was 0.4 µM in data set [1]; 0.8 µM in data set [2]; 1.2 µM in data set [3]; 1.3 µM in data set [4]; 1.2 µM in data set [5].

Consider `O=C(CCl)Nc1ccc(Cn2nc(-c3ccc(Oc4ccccc4)cc3)cc2C(=O)O)cc1`, for which the half-maximal inhibitory concentration (IC50) in [1] worked out at 4 µM; in data set [2], 2.5 µM; in data set [3], 1.2 µM; in data set [4], 1.5 µM; in data set [5], 4.5 µM.

For the molecule `O=C(CCl)Nc1ccc(Cn2nc(-c3ccc(Oc4ccccc4)cc3)cc2CO)cc1`, the IC50 in data set [1], in data set [2], in data set [3], in data set [4] and in [5] was 0.4 µM each time.

On to `O=C(CCl)Nc1cccc(Cn2nc(-c3ccc(Oc4ccccc4)cc3)cc2CO)c1`, for which the 50% inhibitory concentration (IC50) in data set [1], in data set [2], in data set [3], in data set [4] and in [5] was 0.4 µM in each case. Also, the half-life in data set [6] (liver microsomes) worked out at 10.6 min. Besides, the share remaining at 1 h in data set [9] (liver microsomes) is 1.5%. The microsomal CLint in data set [7] (liver microsomes) was 131 µL/min/mg. The molecule also had a CLint scaled in [8] (liver microsomes) of 118 mL/min/kg.

For `C/C=C/C(=O)Nc1cccc(Cn2nc(-c3ccc(Oc4ccccc4)cc3)cc2CO)c1`, the IC50 in data set [1] was found to be 3.4 µM; in data set [2] it was 22.6 µM; in data set [3] it was 8.1 µM; in data set [4], 5.7 µM; in [5] it was 4.9 µM.

As to `C/C=C/C(=O)N1CCCC(n2nc(-c3ccc(Oc4ccccc4)cc3)cc2CO)C1` (racemic), the IC50 in [1] was 27.2 µM; in [2] it was more than 60 µM; in data set [3] it was more than 60 µM; in [4], 51.1 µM; in [5], 45 µM.

Take `O=C(CCl)N1CCCC(n2nc(-c3ccc(Oc4ccccc4)cc3)cc2CO)C1` (racemic): the IC50 in data set [1] amounted to 0.4 µM; in [2], 7.8 µM; in data set [3], 1.1 µM; in [4], 0.4 µM; in [5], 6 µM.

`C/C=C/C(=O)Nc1ccc(Cn2nc(-c3ccc(Oc4ccccc4)cc3)cc2CO)cc1`: the IC50 in data set [1] is 12.2 µM; in [2], more than 60 µM; in data set [3], 48.4 µM; in data set [4] it was 54.5 µM; in data set [5] it was 40.2 µM.

Consider `C=CC(=O)N1CCCC(n2nc(-c3ccc(Oc4ccccc4)cc3)cc2C(=O)OCC)C1` (racemic), for which the half-maximal inhibitory concentration (IC50) in data set [1] is 13.8 µM; in [2], 21.2 µM; in [3], more than 60 µM; in data set [4], 44 µM; in data set [5] it was 42.3 µM.

Regarding `CCOC(=O)c1cc(-c2ccc(Oc3ccccc3)cc2)nn1Cc1cccc(NC(=O)CCl)c1`, the IC50 was 0.4 µM in data set [1]; 0.4 µM in data set [2]; 0.5 µM in data set [3]; 0.4 µM in data set [4]; 1 µM in [5].

Take `C=CC(=O)N1CCCC(n2nc(-c3ccc(Oc4ccccc4)cc3)cc2C(=O)O)C1` (racemic): the IC50 in [1] was 50 µM; in [2] it was more than 60 µM; in [3] it was more than 60 µM; in data set [4] it was more than 60 µM; in data set [5], more than 60 µM.

As to `C=CC(=O)Nc1ccc(Cn2nc(-c3ccc(Oc4ccccc4)cc3)cc2C(=O)OCC)cc1`, the half-maximal inhibitory concentration (IC50) in data set [1] is 2.8 µM; in data set [2], 10.9 µM; in data set [3], 13.3 µM; in [4] it was 12.5 µM; in [5] it was 5.4 µM.

With `C=CC(=O)N1CCC[C@@H](n2nc(-c3ccc(Oc4ccccc4)cc3)c3c(N)ncnc32)C1` [IBRUTINIB], the IC50 in [1] came to 1.1 µM; in [2] it was 1.5 µM; in data set [3], 10.4 µM; in data set [4], 11.3 µM; in data set [5], 10.1 µM.

Turning to `C/C=C/C(=O)Nc1cccc(Cn2nc(-c3ccc(Oc4ccccc4)cc3)cc2C(=O)O)c1`, the IC50 is 26 µM in [1]; more than 60 µM in data set [2]; 31.6 µM in [3]; 24.1 µM in [4]; 23.3 µM in data set [5].

As for `C=CC(=O)Nc1ccc(Cn2nc(-c3ccc(Oc4ccccc4)cc3)cc2C(=O)O)cc1`, the IC50 in data set [1], in [2], in [3], in data set [4] and in data set [5] was more than 60 µM each time.

Consider `C/C=C/C(=O)Nc1ccc(Cn2nc(-c3ccc(Oc4ccccc4)cc3)cc2C(=O)OCC)cc1`, for which the IC50 was 13.1 µM in [1]; 52.5 µM in [2]; more than 60 µM in data set [3]; more than 60 µM in data set [4]; 33.2 µM in data set [5].

Consider `C=CC(=O)Nc1ccc(Cn2nc(-c3ccc(Oc4ccccc4)cc3)cc2CO)cc1`, for which the IC50 in [1] worked out at 3.5 µM; in data set [2], 8 µM; in data set [3], 7 µM; in [4], 6.8 µM; in data set [5], 5.2 µM.

Take `C/C=C/C(=O)Nc1cccc(Cn2nc(-c3ccc(Oc4ccccc4)cc3)cc2C(=O)OCC)c1`: the IC50 was 7.8 µM in data set [1]; 16.7 µM in data set [2]; 14.2 µM in data set [3]; 8.9 µM in [4]; 16.5 µM in data set [5].

For `C/C=C/C(=O)N1CCCC(n2nc(-c3ccc(Oc4ccccc4)cc3)cc2C(=O)O)C1` (racemic), the IC50 was 31 µM in data set [1]; more than 60 µM in [2]; more than 60 µM in data set [3]; more than 60 µM in [4]; more than 60 µM in data set [5].
